Laboratory results from PMC5253331 (Biochemical and biophysical research communications, 2016).
One block for each compound: values may come before it.

How the values were obtained:
[1] = tested on: hPD-L1 cells (CHO stably expressing human PD-L1) vs CHO cells; assay: In vitro binding/uptake of [64Cu]WL12 in hPD-L1 and CHO cells; type: cell-based, Chinese hamster
[2] = tested on: MDAMB231 and SUM149 cells; type: cell-based, human; details: MDAMB231 high, SUM149 low PD-L1 expression
hPD-L1 and CHO tumors = assay: Ex vivo biodistribution and blocking in NSG mice with hPD-L1 and CHO tumors; parameters: species or system mouse; details: co-injected with excess WL12 (50 μg, 2 mg/kg), 2 h
[3] = target: human PD-L1 on CHO cells stably expressing human PD-L1 (human) (UniProt Q9NZQ7); assay: ex vivo biodistribution with blocking dose
[4] = target: recombinant human PD-L1(B7-H1)-His-tag protein (human) (UniProt Q9NZQ7); assay: AlphaScreen or HTRF
[5] = target: human PD-L1 on CHO cells stably expressing human PD-L1 (human) (UniProt Q9NZQ7); assay: radioligand binding
[6] = target: human PD-L1 on CHO cells stably expressing human PD-L1 (human) (UniProt Q9NZQ7); assay: PET imaging and ex vivo biodistribution

Chain of human PD-L1 on CHO cells stably expressing human PD-L1 (human) (Q9NZQ7 19-290): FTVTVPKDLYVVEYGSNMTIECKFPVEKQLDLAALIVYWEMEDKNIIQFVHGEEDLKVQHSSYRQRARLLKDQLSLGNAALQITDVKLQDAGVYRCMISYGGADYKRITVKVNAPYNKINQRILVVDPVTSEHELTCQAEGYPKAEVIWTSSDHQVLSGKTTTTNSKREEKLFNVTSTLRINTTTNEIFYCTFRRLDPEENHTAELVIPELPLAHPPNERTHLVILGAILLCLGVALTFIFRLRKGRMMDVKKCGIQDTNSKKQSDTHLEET
Chain of recombinant human PD-L1(B7-H1)-His-tag protein (human) (Q9NZQ7 19-238): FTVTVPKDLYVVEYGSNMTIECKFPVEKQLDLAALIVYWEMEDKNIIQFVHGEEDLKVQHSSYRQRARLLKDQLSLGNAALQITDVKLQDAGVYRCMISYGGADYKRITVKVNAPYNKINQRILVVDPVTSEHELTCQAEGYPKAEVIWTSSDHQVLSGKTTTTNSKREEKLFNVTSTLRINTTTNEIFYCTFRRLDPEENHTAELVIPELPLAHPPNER

Compound: CCCC[C@H]1C(=O)N(C)[C@@H](CCCC)C(=O)N[C@@H](CCCNC(=O)CCC(C(=O)O)N2CCN(CC(=O)O)CCN(CC(=O)O)CCN(CC(=O)O)CC2)C(=O)N[C@H](C(=O)NCC(N)=O)CSCC(=O)N[C@@H](Cc2ccc(O)cc2)C(=O)N(C)[C@@H](C)C(=O)N[C@@H](CC(N)=O)C(=O)N2CCC[C@H]2C(=O)N[C@@H](Cc2c[nH]cn2)C(=O)N[C@@H](CC(C)C)C(=O)N2C[C@H](O)C[C@H]2C(=O)N[C@@H](Cc2c[nH]c3ccccc23)C(=O)N[C@@H](CO)C(=O)N[C@@H](Cc2cn(C)c3ccccc23)C(=O)N1C (some centres unmarked) [[^64Cu]WL12, metal not drawn]
uptake of the incubated dose in hPD-L1 cells ([1]; hPD-L1 cells incubated with [64Cu]WL12 for 1 h): > 50%
reduction in bound [64Cu]WL12 in the presence of blocking dose of WL12 ([1]; hPD-L1 cells, 1 μM blocking dose of WL12): > 95%
increase in bound radioactivity in hPD-L1 cells compared to negative control CHO cells ([1]; incubation 1 h): 43 fold
uptake of radioactivity in MDAMB231 cells compared to SUM149 cells [2]: Two-fold higher
change in %ID/g in control CHO tumors on blocking (hPD-L1 and CHO tumors): no significant difference
change in kidney uptake on blocking (hPD-L1 and CHO tumors): reduced uptake

percent reduction in %ID/g of [64Cu]WL12 in hPD-L1 tumors with excess WL12 [3]: > 75%
IC50 [4]: 0.022 µM
Compound: WL12 (peptide)

IC50 [4]: 0.0029 µM
Compound: WL12-Cu (peptide)

percent uptake of the incubated dose [5]: > 50%
tumor uptake at 1 h (%ID/g) [6]: 14.9 %ID/g
Compound: [64Cu]WL12 (peptide)
